Source: patent US9161944B2, “Method for preventing cancer metastasis” (INSERM (INSTITUT NATIONAL DE LA SANTE ET DE LA SANTE ET DE …, priority 2010, dated 2015)

Test system: MCF-10A
Assay: Transwell motility of non cancerous cells
Assay type: cell-based, human
Conditions: 10 nM to 1 μM, FIG. 6C
Experimental: FIG. 6: JPH1701 (or Ohmline) activity on cell motility on cancerous MDA-MB-435s cells and on non cancerous MCF-10A cells. The motility was tested by transwell assay. Additionally, viability tests were performed using MTT assays. FIG. 6A-B) JPH1701 (the concentrations of JPH1701, for the FIG. 6A, are 0 (control condition), 10 nM, 100 nM, 300 nM and 1 μM) reduces motility (FIG. 6A) of MDA-MB-435s wild type (WT) cells from 10 nM without affecting viability (FIG. 6B) except at 10 μM. FIG. 6C-D) MCF-10A motility (FIG. 6C) and viability (FIG. 6D) are not affected by JPH1701 (the concentrations of JPH1701, for the FIG. 6C, are 0 (control condition), 10 nM, 100 nM, 300 nM and 1 μM). FIG. 6E-F) Effect on SK3 dependent motility.
The immortalized normal mammary epithelial cell lines MCF-10A and 184A1 were cultured in DMEM/Ham's F-12, 1:1 mix containing 5% horse serum (Invitrogen Life Technologies, France), insulin (10 μg/ml), epidermal growth factor (20 ng/ml), hydrocortisone (0.5 μg/ml) and, respectively for MCF-10A and 184A1, 100 ng/ml cholera toxin and 1 ng/ml cholera toxin plus 5 μg/ml transferrin.

“hexadecyloxy-2-O-methyl-sn-glycerol-lactose [JPH1701]” was tested, and the “Effect on cell migration of non-cancerous cells” value was “did not affected”.
